Laboratory results as given in patent publication US6953813B1, “2-Aminotetralin derivatives for the therapy of glaucoma” (Chiesi Farmaceutici S.p.A., priority 1999, dated 2005).

Legend:
[1] = tested on: normotensive Dutch Belted rabbits; test: Eye irritation by extent of eyelid closure after topical eyedrop; type: in vivo, rabbit; details: single dose 25 μl of 0.5%, 0.2%, 0.05% and 0.01% solution
Protocol: The experimental animals used were normotensive Dutch Belted rabbits of either gender (n=6). A single drop (25 μl) of the test solution was instilled unilaterally into the left eye (treated eye). IOP of the rabbits (treated and untreated eyes) was measured at 1 and 0 h before, and at 0.5, 1, 2, 3, 4, 5, 6 and 7 h after topical eyedrop administration. IOP at the time of eyedrop administration (0 h) was used as a baseline value. IOP was measured using a BioRad Pneumatonometer. More detailed description of the IOP measurement procedure can be found in Pharm. Res. 14, 1738-1743, 1997 and Curr. Eye Res. 14, 791-797, 1995. All the studies were set up using a randomized crossover design. At least 72 h of wash-out time was allowed for each rabbit between dosings. The irritation caused by an instilled eyedrop were evaluated by recording the extent of eyelid closure after topical eyedrop administration.

[2] = Ocular tolerability; type: in vivo

Which “eye irritation (eyelid closure)” value [1] does the source give for `CNC1CCc2c(ccc(OC(=O)C(C)C)c2OC(=O)C(C)C)C1` (racemic) [CHF 1035, (±)-(R,S)-5,6-diisobutyryloxy-2-methylaminotetralin] here?
The value was “no eyelid closure was observed”.

What about the “concentration up to which well tolerated (no redness, blinking or other side effects)” value [2] of the same compound?
The value was “up to 5%”.
